Experimental data reported in patent US10279053B2, “Microbubble compositions, method of making same, and method using same” (NuvOx Pharma LLC, priority 2011, dated 2019).

Assays:
[1] = Boiling point / liquid-gas phase transition temperature of core gases; assay type: physicochemical; conditions: interstitial pressure of 795 mm Hg; gas law approximation
Text: Applicant's gaseous precursors include, for example, fluorinated carbons, perfluorocarbons, sulfur hexafluoride, perfluoro ethers and combinations thereof. As the stilled artisan will appreciate, a particular fluorinated compound, such as sulfur hexafluoride, a perfluorocarbon or a perfluoro ether, may exist in the liquid state when the compositions are first made, and are thus used as a gaseous precursor. Whether the fluorinated compound is a liquid generally depends on its liquid/gas phase transition temperature, or boiling point. For example, a preferred perfluorocarbon, perfluoropentane, has a liquid/gas phase transition temperature (boiling point) of 29.5° C. This means that perfluoropentane is generally a liquid at room temperature (about 25° C.), but is converted to a gas within the human body, the normal temperature of which is about 37° C., which is above the transition temperature of perfluoropentane. Thus, under normal circumstances, perfluoropentane is a gaseous precursor. As known to one skilled in the art, the effective boiling point of a substance may be related to the pressure to which that substance is exposed. This relationship is exemplified by the ideal gas law: PV=nRT, where P is pressure, V is volume, n is moles of substance, R is the gas constant, and T is temperature. […] Conversely, as pressure decreases, the effective boiling point decreases. […]

[2] = standard pressure of about 760 mm Hg; cited from earlier work

FC(F)(F)C(F)(F)C(F)(F)C(F)(F)C(F)(F)F [Perfluoropentane]
boiling point at interstitial pressure [1]: about 30.5 °C
liquid/gas phase transition temperature (boiling point) [2]: 29.5 °C
